The values that follow come from patent US20150296783A1, “SYNERGISTIC COMBINATION OF A ZOXAMIDE COMPOUND AND TERBUTRYN FOR DRY FILM PROTECTION” (ROHM AND HAAS COMPANY, priority 2012, published 2015).

For test [1], the system named is Chlorella sp. ATCC 7516. Briefly: Algal efficacy testing of dry paint film (modified ASTM 5589), Chlorella. The test is classed as cell-based. To be noted: 3 weeks; for Total conc (concentration chosen as minimum inhibitory concentration for SI): dry paint film, pass level ≧75% inhibition, total biocide in liquid paint. On the procedure:
(§1) Slurries containing 33% antimicrobial active ingredient (Zoxamide) and 45% antimicrobial ingredient Terbutryn were post added to a white, acrylic/silicone based outdoor paint free of biocides to give a total active ingredient concentration of […] respectively. These paints were then diluted with an antimicrobial free acrylic/silicone based paint and mixed to prepare targeted concentrations of antimicrobial compounds for the testing. The total biocides concentrations tested were 125, 250, 500, 1000, 2000 and 5000 ppm. After biocides addition or dilution, the paints were mixed 90 seconds with the horse power shaker (AXEL 75M3372/Agitateur SO-10MI) until uniformity was achieved. Paints containing different antimicrobial compounds at the same levels were mixed together in order to obtain the desired ratio of antimicrobial compounds. After one day, the paints were applied to Schleicher & Schuell filter paper at 280 μm wet film thickness and dried for 3 days at room temperature avoiding direct exposure to sunlight. Square discs (1.6 cm×1.6 cm) were cut out from each panel and were used as the substrate for algal efficacy tests. This sample size allowed for an agar border when the sample disc was placed into the well of the test plate.
(§2) Algal efficacy was tested according to modified ASTM 5589 which is a standard accelerated test method for determining resistance of various coatings (including paints) to algal defacement. To accommodate for high-throughput screening, this method was scaled down from petri dishes to 6-well plates. Bold Modified Basal Freshwater Nutrient Solution was used as growth medium. A single coated filter paper coupon was placed with a pair of sterile forceps at the center of the agar plug (on top) with the painted surface facing upwards. Algal inoculums were prepared by mixing equal concentrations (1×10^6 cfu/ml) and equal volumes of exponentially growing algae cultures.
(§3) Each well that contains a tested coupon was inoculated with 1750 μl of algal suspensions (1×10^6 cfu/ml) making sure that the whole surface (paint film as well as the agar surrounding it) was evenly covered. The plates were incubated at room temp (21° C.-25° C.) with cyclic exposure to light and dark phases, for a period of three weeks.
(§4) At the end of the three week incubation period, the samples were scored for percent inhibition regarding visible algal growth compared to the blank sample (0% inhibition).
(§5) The SI is calculated based on F .C. Kull et.
(§6) The minimal targeted inhibition was set at 75%, meaning a coupon with at least 75% algal growth inhibition was considered as a pass.

In test [2] the test system is Stichococcus bacillaris SAG 379-1a / CCAP 379/1a. Briefly: Algal efficacy testing of dry paint film (modified ASTM 5589), Stichococcus. It counts as cell-based. To be noted: 3 weeks; for inhibition at 5000 ppm: Stichococcus bacillaris, 504 h, total conc 5000 ppm, visible algal growth vs blank; for Total conc (concentration chosen as minimum inhibitory concentration for SI): dry paint film, pass level ≧75% inhibition, total biocide in liquid paint. Here is the method:
as §1, §2, §3, §4, §5, §6

Structures are written as SMILES.

Take `CCNc1nc(NC(C)(C)C)nc(SC)n1` [Terbutryn, N^2-tert-butyl-N^4-ethyl-6-methylthio-1,3,5-triazine-2,4-diamine]: the inhibition at 2000 ppm in test [1] (504 h, total conc 2000 ppm, visible algal growth vs blank) stood at 85%. The “Total conc (concentration chosen as minimum inhibitory concentration for SI)” value in test [1] turned out to be 2000 ppm. Moreover, in test [2], the inhibition at 5000 ppm came out at 80% and the “Total conc (concentration chosen as minimum inhibitory concentration for SI)” value came out at 5000 ppm.

On to `CCC(C)(NC(=O)c1cc(Cl)c(C)c(Cl)c1)C(=O)CCl` (centres unmarked) [Zoxamide, 3,5-Dichloro-N-(3-chloro-1-ethyl-1-methyl-2-oxopropyl)-4-methylbenzamide], for which the inhibition at 5000 ppm came to 60% in test [1] (504 h, total conc 5000 ppm, visible algal growth vs blank) and 45% in test [2]. For the same compound, the “Total conc (concentration chosen as minimum inhibitory concentration for SI)” value in test [1] and in test [2] was 5000 ppm each time.

The term inhibition denotes the percentage by which the read-out fell short of the control. Higher therefore signals strong suppression.
